ChEMBL document CHEMBL3885861, “Open TG-GATES”

Species: Rattus norvegicus
Test: Open TG-GATES - Regimen: Single
Assay type: toxicity, organism-based, Sprague-Dawley
Parameters: regimen Single, gender Male, age 6 weeks
Settings: in vivo, po, 6 mg/kg, route gavage, dose level Low; for APTT / Bas / Eos / Fbg / Hb / Ht / Lym / MCH / MCHC / MCV / Mono / Neu / PT / Plat / RBC / Ret / WBC: tissue Blood; for KIDNEY_L / KIDNEY_R / KIDNEY_TOTAL: tissue Kidney; for LIVER: tissue Liver; for A/G / ALP / ALT / AST / BUN / CRE / Ca / Cl / DBIL / GLC / IP / K / LDH / Na / PL / RALB / TBIL / TC / TG / TP / gamma-GTP: tissue Plasma

## CC(C)NNC(=O)c1ccncc1 [IPRONIAZID]
3 h
  TERMINAL_BW: 204.8 g
  APTT: 22.1 s
  Bas: 0%
  Eos: 1%
  Fbg: 317 mg/dL
  Hb: 13.4 g/dL
  Ht: 38.8%
  Lym: 77%
  MCH: 21.1 pg
  MCHC: 34.5%
  MCV: 61.2 fL
  Mono: 1.8%
  Neu: 20%
  PT: 16.3 s
  Plat: 129.7 x10_4/uL
  RBC: 634.8 x10_4/ul
  Ret: 7.5%
  WBC: 72.5 x10_2/uL
  KIDNEY_L: 1 g
  KIDNEY_R: 1 g
  KIDNEY_TOTAL: 2 g
  LIVER: 9.7 g
  A/G: 1.2
  ALP: 1455.8 IU/L
  ALT: 40.8 IU/L
  AST: 83.8 IU/L
  BUN: 13.4 mg/dL
  CRE: 0.1 mg/dL
  Ca: 10.6 mg/dL
  Cl: 106.8 meq/L
  DBIL: 0.002 mg/dL
  GLC: 187.2 mg/dL
  IP: 9 mg/dL
  K: 4.1 meq/L
  LDH: 208.2 IU/L
  Na: 142 meq/L
  PL: 132.4 mg/dL
  RALB: 3.1 g/dL
  TBIL: 0.016 mg/dL
  TC: 67 mg/dL
  TG: 73.2 mg/dL
  TP: 5.6 g/dL
  gamma-GTP: 1.4 IU/L
6 h
  TERMINAL_BW: 201.3 g
  APTT: 22.8 s
  Bas: 0%
  Eos: 0.6%
  Fbg: 317 mg/dL
  Hb: 13.1 g/dL
  Ht: 38.4%
  Lym: 78.8%
  MCH: 20.9 pg
  MCHC: 34.1%
  MCV: 61.2 fL
  Mono: 2.2%
  Neu: 17.8%
  PT: 15.6 s
  Plat: 118.4 x10_4/uL
  RBC: 627.2 x10_4/ul
  Ret: 7.4%
  WBC: 69.8 x10_2/uL
  KIDNEY_L: 0.9 g
  KIDNEY_R: 0.9 g
  KIDNEY_TOTAL: 1.9 g
  LIVER: 8.9 g
  A/G: 1.2
  ALP: 1305.2 IU/L
  ALT: 36.8 IU/L
  AST: 73.2 IU/L
  BUN: 9.6 mg/dL
  CRE: 0.2 mg/dL
  Ca: 10.6 mg/dL
  Cl: 106.8 meq/L
  DBIL: 0.002 mg/dL
  GLC: 182.4 mg/dL
  IP: 9.2 mg/dL
  K: 4.3 meq/L
  LDH: 225.2 IU/L
  Na: 141.6 meq/L
  PL: 135.2 mg/dL
  RALB: 3.1 g/dL
  TBIL: 0.014 mg/dL
  TC: 74.2 mg/dL
  TG: 62.2 mg/dL
  TP: 5.5 g/dL
  gamma-GTP: 1 IU/L
9 h
  TERMINAL_BW: 205.8 g
  APTT: 22 s
  Bas: 0%
  Eos: 1%
  Fbg: 323.2 mg/dL
  Hb: 13.2 g/dL
  Ht: 38.7%
  Lym: 77.8%
  MCH: 20.8 pg
  MCHC: 34.1%
  MCV: 60.9 fL
  Mono: 2%
  Neu: 18.6%
  PT: 15.8 s
  Plat: 120.2 x10_4/uL
  RBC: 635.6 x10_4/ul
  Ret: 7.8%
  WBC: 99.2 x10_2/uL
  KIDNEY_L: 0.9 g
  KIDNEY_R: 1 g
  KIDNEY_TOTAL: 1.9 g
  LIVER: 8.7 g
  A/G: 1.2
  ALP: 1353 IU/L
  ALT: 37.2 IU/L
  AST: 72 IU/L
  BUN: 12.8 mg/dL
  CRE: 0.2 mg/dL
  Ca: 10.4 mg/dL
  Cl: 106.8 meq/L
  DBIL: 0.004 mg/dL
  GLC: 178.8 mg/dL
  IP: 10 mg/dL
  K: 4.2 meq/L
  LDH: 172.6 IU/L
  Na: 141.4 meq/L
  PL: 130.6 mg/dL
  RALB: 3 g/dL
  TBIL: 0.014 mg/dL
  TC: 74 mg/dL
  TG: 72.2 mg/dL
  TP: 5.5 g/dL
  gamma-GTP: 1.4 IU/L
24 h
  TERMINAL_BW: 218.2 g
  APTT: 21.7 s
  Bas: 0%
  Eos: 1%
  Fbg: 323.4 mg/dL
  Hb: 13.2 g/dL
  Ht: 38.3%
  Lym: 83.8%
  MCH: 21.2 pg
  MCHC: 34.5%
  MCV: 61.3 fL
  Mono: 2.6%
  Neu: 12.2%
  PT: 16.6 s
  Plat: 119.6 x10_4/uL
  RBC: 624 x10_4/ul
  Ret: 7.1%
  WBC: 95 x10_2/uL
  KIDNEY_L: 1 g
  KIDNEY_R: 1 g
  KIDNEY_TOTAL: 1.9 g
  LIVER: 10.2 g
  A/G: 1.2
  ALP: 1506.4 IU/L
  ALT: 43.2 IU/L
  AST: 74.6 IU/L
  BUN: 15.2 mg/dL
  CRE: 0.2 mg/dL
  Ca: 10.7 mg/dL
  Cl: 106.4 meq/L
  DBIL: 0.004 mg/dL
  GLC: 179.8 mg/dL
  IP: 7.4 mg/dL
  K: 4.6 meq/L
  LDH: 255 IU/L
  Na: 141.6 meq/L
  PL: 148.8 mg/dL
  RALB: 3 g/dL
  TBIL: 0.008 mg/dL
  TC: 83.2 mg/dL
  TG: 98.8 mg/dL
  TP: 5.5 g/dL
  gamma-GTP: 1.6 IU/L
